Here are results for one molecule from US11857544B2, “Composition or method including (t)ew-7197 for treating or preventing corneal endothelial diseases” (THE DOSHISHA, priority 2017, dated 2024).

Each structure is given as a SMILES string.

One test concerns Caspase 3/7. The test can be described thus: Caspase 3/7 activity (Caspase-Glo 3/7 Assay) in TGF-β-stimulated iFECD. Type of test: cell-based, human. The procedure: were seeded on a 96-well plate at a ratio of 3×10^3 cells per well, and cultured until reaching confluence at 37° C. (5% CO2). DMEM+10% FBS+1% P/S was used as the medium. After 24 hours, the medium was removed. SB431542 (WAKO, 192-16541) and EW-7197 (Selleck Chemicals, 57530) were added so that the final concentration would each be 0.01, 0.1, 1, or 10 μM, and the medium was cultured for 24 hours. DMEM+2% FBS+1% P/S was used as the medium. After 24 hours, the medium was removed. 10 ng/ml of Transforming Growth Factor-132 Human recombinant (WAKO, 200-19911) and SB431542 were added so that the final concentration would be 0.01, 0.1, 1, and 10 μM, and the medium was cultured for 24 hours. DMEM+2% FBS+1% P/S was used as the medium. After 24 hours, the cell morphology was observed under a phase contrast microscope. After observation, Caspase 3/7 activity was measured using Caspase-Glo 3/7 Assay by the following procedures. The medium was discarded so that the amount would be 50 μl per well, and a Caspase Glo 3/7 Assay Reagent (mixture of Caspase-Glo 3/7 Assay Buffer and Caspase-Glo 3/7 Assay Substrate) (Promega, G8091) solution was added at 50 μl/well so that the ratio thereof to the medium would be 1:1. The process was hereinafter conducted without exposure to light. The mixture was mixed thoroughly using a shaker for 2 minutes at about 120 min^-1, and incubated for 40 minutes at room temperature. After the incubation, 80 μl was transferred to an Assay plate (Corning, 3912, Assay plate 96 well, white polystyrene), and absorbance was measured using a GloMax-Multi Detection System (Promega, E7051). A caspase inhibitor, i.e., 10μ MZ-VD-FMK (WAKO, 262-02061) was used as a positive control.

Test [1] has as its system activated form of cleaved caspase 3. Nature of the test: Western blot for cleaved caspase 3 in TGF-β-stimulated iFECD. Format: cell-based, human. The conditions noted are these: 0.1, 1, 10 μM. On the procedure:
[…] were seeded on a 12-well plate at a ratio of 8×10^4 cells per well, and cultured at 37° C. (5% CO2) for 24 hours. DMEM+10% FBS+1% P/S was used as the medium. After 24 hours, the medium was removed. EW-7197 (Selleck Chemicals, 57530) was added so that the final concentration would be 0.1, 1, or 10 μM, and SB431542 (WAKO, 192-16541) was added so that the final concentration would be 10 μM, and the medium was cultured for 24 hours. DMEM+2% FBS+1% P/S was used as the medium. After 24 hours, the medium was removed and cultured […] so that the final concentration of 10 ng/ml of Transforming Growth Factor-132 Human recombinant (WAKO, 200-19911) and […] would be 0.1, 1, and 10 μM, and that of SB431542 would be 10 μM. DMEM+2% FBS+1% P/S was used as the medium. After 24 hours, the cell morphology and apoptosis were observed under a phase contrast microscope. To retrieve floating and dead cells, the medium was retrieved on ice, cells were washed twice with 1×PBS(-) and the solution thereof was also retrieved. The solution was centrifuged for 5 min at 4° C. and 800 g and the supernatant was discarded to obtain a precipitate. […] The detected band intensities were analyzed with Lumino Image Analyzer LAS-4000 mini (Fuji Film) and ImageQuantTM software (GE Healthcare).
A general note: A western blot detects proteins with antibodies after separation by electrophoresis.

The subject of another test is Col8a2 knock-in mice. The test can be described thus: Corneal endothelial cell density after eye drops in Col8a2 knock-in mice (Example 5, 8 weeks). The following applies: for Amount of change in the corneal endothelial cell density (ΔECD): 0.02% eye drop 4 times a day. Format: in vivo. The procedure: This Example evaluated the efficacy of an EW-7197 eye drop on Fuchs' endothelial corneal dystrophy using a Fuchs' endothelial corneal dystrophy animal model, Col8a2 knock-in mice. Col8a2 knock-in mice are established animal models of Fuchs' endothelial corneal dystrophy (reference: Jun et al., Hum Mol Genet. 2012 Jan. 15; 21(2): 384-93). 5 μL of 0.02% (about 0.5 mM) EW-7197 eye drop or a base agent (7% DMSO containing PBS) was administered as an eye drop to both eyes of 4-month-old alpha 2 collagen 8 gene (Col8a2) knock-in mice 4 times a day for 8 weeks. The corneal endothelial cell density was measured using a specular microscope KS3M (Konan Medical, Inc.) at before eye drops, and 2, 4, 6, and 8 weeks after eye drops. Mice were euthanized by intraperitoneally administering an excessive amount (200 mg/kg body weight or greater) of anesthetic injection Somnopentyl (Kyoritsu Seiyaku Corporation) 8 weeks after injection. After confirming cardiac arrest, both eye balls were harvested. The harvested eye balls were incised to prepare a corneal fragment. Immunostaining of type I collagen and fibronectin was performed as follows. Image-Pro (Nippon Roper K.K.) was used to analyze the area of type I collagen and fibronectin expression.

As to `Cc1cccc(-c2[nH]c(CNc3ccccc3F)nc2-c2ccc3ncnn3c2)n1` [EW-7197, N-((4-([1,2,4]triazolo[1,5-a]pyridin-6-yl)-5-(6-methylpyridin-2-yl)-1H-imidazol-2-yl)methyl)-2-fluoroaniline], the “activity of Caspase 3/7” value in the test on Caspase 3/7 (at 0.01 μM) is given as “inhibited significantly”. Further, the “Caspase 3/7 inhibitory effect compared to SB431542” value with Caspase 3/7 (at 0.1 μM) is on record as “higher inhibitory effect”. For the same molecule, the “activated form of cleaved caspase 3 (about 17 kDa)” value in test [1] was “suppressed to the same degree as the control group without stimulation with TGF-β or 10 μM of SB431542”. In addition, in the test with Col8a2 knock-in mice (0.02% eye drop), the “decrease in the corneal endothelial cell density compared to the base agent group” value was “suppressed significantly”. For the same molecule, the “Amount of change in the corneal endothelial cell density (ΔECD)” value in the test with Col8a2 knock-in mice (week 0 (before eye drop)) is on record as 0 cells/mm^2; in the test with Col8a2 knock-in mice (week 4), −121.4 cells/mm^2; with Col8a2 knock-in mice (week 8), −284.5 cells/mm^2.
